Reference: patent publication US11103532B2, “Chimeric protein” (AUTOLUS LIMITED, priority 2015, dated 2021)

Tested on: T-cells
Assay: Deletion of chimeric protein-expressing T-cells with Rapamycin (Annexin-V/7AAD flow cytometry)
Type: cell-based
Conditions: 48 hours; for deletion of transduced T-cells: different concentrations of Rapamycin, live cells expressing fluorescent proteins; for deletion of T-cells expressing both eGFP and eBFP2: lowest concentration of Rapamycin, co-transduced pair
Experimental: T-cells were either transduced with eGFP alone (FIG. 2a), or co-transduced with FKBP12-dCasp9 (co-expressing eGFP) and FRB-dCasp9 (co-expressing eBFP2) (FIG. 2b). T-cells were intentionally only partially transduced so that the non-transduced T-cells would act as internal controls. […] After 48 hours, cells were stained with Annexin-V and 7AAD and analysed by flow cytometry looking at the proportion of live cells which were expressing fluorescent proteins.
FIG. 3—Function of RapCasp9 variants. T-cells were transduced with (a) eGFP alone; (b) double transduced with FKBP12-Casp9 and FRB-Casp9 co-expressed with eGFP and eBFP2 respectively; (c) transduced with FRB-FKBP12-Casp9 and (d) transduced with FRB-Casp9-FKBP12 and (e) FBP12-Casp9-2A-FRB-FRBw. Only a proportion of cells were transduced, the negative cells acted as an internal negative control. […] T-cells were then stained with Annexin-V and 7AAD and analysed by flow-cytometry. eGFP vs eBFP2 is shown on live cells as determined by Annexin-V and 7AAD staining.
T-cells were transduced with the different constructs. For the two-molecule rapCasp9 (FIG. 1a), T-cells were transduced with two vectors: one coding for FKBP12-Casp9 co-expressed with the green fluorescent protein eGFP by means of an internal ribosome entry sequence, and the other coding for FRB-Casp9 co-expressed with the blue fluorescent protein eBFP2. For the one molecule rapCasp9 (FIG. 1b), T-cells were transduced with just one vector coding for the respective rapCasp9 which are co-expressed eGFP. A construct which provided FKB12-Casp9 and FRB-FRBw was encoded in a tri-cistronic cassette whereby the FKBP12-Casp9 and FRB-FRBw were co-expressed using a FMD-2A like peptide and eGFP was co-expressed with an IRES. The T-cells were intentionally only partially transduced so within the cell culture a proportion of cells remained non-transduced to act as an internal negative control.
Following this, T-cells were stained with Annexin-V and 7AAD and analysed by flow-cytometry. By gating on the live cells, and interrogating the population of cells expressing fluorescent proteins, survival of the transduced and non-transduced populations could be clearly measured.

FKBP12-FRB-Casp9: single construct where FKBP12 and FRB are fused together and then fused to the catalytic domain of Casp9 by a flexible linker
deletion of transduced T-cells: effective deletion of single positive cells

FKBP12-Casp9/FRB-FRBw: Caspase 9 catalytic domain fused to FKBP12, co-expressed with a fusion of two copies of FRB
deletion of transduced T-cells: effective deletion of single positive cells

FKBP12-Casp9: catalytic domain of Casp9 fused with FKBP12; tested co-expressed with FRB-Casp9
deletion of transduced T-cells: effective deletion of only double positive cells | deletion of T-cells expressing both eGFP and eBFP2: very effectively deleted

B1: FRB-Casp9: catalytic domain of Casp9 fused with FRB; tested co-expressed with FKBP12-Casp9 (protein)
chain: MASRILWHEMWHEGLEEASRLYFGERNVKGMFEVLEPLHAMMERGPQTLKETSFNQAYGRDLMEAQEWCRKYMKSGNVKDLLQAWDLYYHVFRRISKLEYSGGGSGVDGFGDVGALESLRGNADLAYILSMEPCGHCLIINNVNFCRESGLRTRTGSNIDCEKLRRRFSSLHFMVEVKGDLTAKKMVLALLELAQQDHGALDCCVVVILSHGCQASHLQFPGAVYGTDGCPVSVEKIVNIFNGTSCPSLGGKPKLFFIQACGGEQKDHGFEVASTSPEDESPGSNPEPDATPFQEGLRTFDQLDAISSLPTPSDIFVSYSTFPGFVSWRDPKSGSWYVETLDDIFEQWAHSEDLQSLLLRVANAVSVKGIYKQMPGCFNFLRKKLFFKTSAS
modifications: Chimeric protein FRB-dCasp9
deletion of transduced T-cells: effective deletion of only double positive cells | deletion of T-cells expressing both eGFP and eBFP2: very effectively deleted
